Test results from US11142588B2, “Polypeptides which bind C-X-C chemokine receptor type 4 (CXCR4) and methods of treating or reducing the risk of fibrosis and cancer” (AdAlta Limited, priority 2015, dated 2021).
“Also recorded” adds a separate entry of the source.

What was measured:
Ramos tumor cells [1] = assay: MTT cell proliferation assay; format: cell-based, human; conditions: 24 to 72 hrs, AM3-114 at 10 μM
Description: The ability of the CXCR4 molecules or polypeptides disclosed herein (i-bodies) to inhibit proliferation of Ramos tumor cells, a human Burkitt's lymphoma cell line expressing CXCR4 mentioned above, in vitro was examined in a MTT cell proliferation assay as described in (Lapteva (2005) Cancer Gene Therapy 12, 84-89). Cells were grown in a 96-well tissue culture plate and treated with a vehicle or the anti-CXCR4 body. The cells were then incubated with the MTT solution for approximately 4 hours. After this incubation period, a water-insoluble formazan dye is formed. After solubilization, the formazan dye is quantitated using a scanning multi-well spectrophotometer (ELISA reader).

Ramos tumor cells [2] = assay: Apoptosis assay (annexin V / propidium iodide flow cytometry); format: cell-based, human; conditions: annexin V and propidium iodide double positive, 24 or 72 hours
[3] = system: human CD34+ stem and progenitor cells; assay: Mobilisation of human CD34+ cells in humanised NSG mice; format: in vivo, humanized NODSIL2Rγ (NSG) mice; conditions: humanised NSG mouse model, compared to AMD3100
Description: To acquire evidence of mobilisation of human CD34^+ stem and progenitor cells using CXCR4 i-bodies, the above mobilisation experiment was conducted in humanized NODSIL2Rγ (NSG) mice. NSG mice are severely immunodeficient and lack mature T cells, B-cells and NK cells and have severely defective innate immunity, which allows engraftment of human cells without subsequent rejection. NSG mice were transplanted with freshly sorted CD34^+ cord blood cells and upon confirmation of positive human CD45/CD34 engraftment (˜4-5 weeks) were used as a mouse model for human stem cell mobilisation.
Mobilised peripheral blood was harvested and assessed for CD34^+ (human stem and progenitors).

human CD34+CD38− HSC = assay: In vitro flow cytometric binding to HSC; format: cell-based; conditions: 10 μg/ml; for binding to human Cord Blood HSC: in decreasing avidity
Description: To determine whether CXCR4 i-bodies bind HSC, in vitro binding analysis to human CD34+CD38^− cells was assessed. Umbilical cord blood (CB) and human bone marrow (BM) were collected as previously described (Nilsson S K et al, 2005 15; 106(4):1232-9; Grassinger, 2009 2; 114(1):49-59). Enriched human BM CD34+ cells and purified CB CD34^+ cells were isolated as previously described (Grassinger, 2009). Human CB and BM CD34+ cells and huNSG BM were stained sequentially with CXCR4 i-bodies (10 μg/ml), anti-His-PE and an antibody cocktail containing CD34-FITC (BD Biosciences #348053) and CD38-BV421 (BD Horizon #562444), washed with PBS (0.5% BSA) and analysed by flow cytometry on a Cytopeia Influx (BD) as previously described (Grassinger, 2009). For analysis of human and murine BM and PB, up to 5×10^6 cells were analyzed at 10-20,000 cells/sec. Data were analyzed using FlowJo 10 software (FlowJo, LLC). For analysis of huNSG BM, huCD45-PECy7 (BD Biosciences #557748) and muCD45-BUV395 (BD Biosciences #564279) were also included in the antibody cocktail. HSC from human CB and BM were defined as CD34+CD38− and HSC from huNSG mice were defined as muCD45^−huCD45^+CD34^+CD38^−. CB and BM samples from 3 individual donors and BM from 3 individual huNSG mice were assessed.

[4] = Murine air pouch model with SDF-1; format: in vivo, BALB/c mice; conditions: intraperitoneal, 30 minutes before SDF-1 6 μg
Description: The ability of i-bodies to block inflammation was evaluated in an in vivo murine air pouch model. The subcutaneous (s.c.) air pouch is an in vivo model used to study acute and chronic inflammation (Durate et al, Models of Inflammation: Carrageenan Air Pouch, Current Protocols in Pharmacology 5.6.1-5.6.8, March 2012). Injection of irritants into an air pouch in rats or mice induces an inflammatory response that can be quantified by the volume of exudate produced, the infiltration of cells, and the release of inflammatory mediators. An air pouch, is generated by injection of sterile air under the skin of the back of the mouse. […] Air pouch lavage fluid is then analyzed for cell trafficking and cytokine release.
The air pouch assay was performed on 7-week-old BALB/c mice. On days 1 and 3, 0.2 ml/g initial body weight (IBW) of sterile air was injected under the back skin to create the pouch. […] Thirty minutes later, SDF-1 (6 μg) was injected into the pouch. Four hours later, the mice were killed in a CO2 chamber and the air pouch was washed. Cells were collected, counted, and characterized by flow cytometry.

[5] = Bleomycin mouse model of pulmonary fibrosis; format: in vivo
In short: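 Mice received bleomycin 2 U/mouse, with i-body dosed just before; at day 4, BAL SDF-1, lung fibrocytes (CD45+ CXCR4+ Collagen1+ by flow cytometry of collagenase/dispase suspensions), Sircol collagen staining and Col-1, Col-3, SDF-1 RNA were assessed. A separate 21-day bleomycin study tested PEGylated i-body.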

[6] = system: Human platelet rich plasma; assay: SDF-1α induced platelet aggregation; format: cell-based; conditions: 10 or 20 ug/mL, 100 nM SDF-1 alpha
Description: Experiments were carried out to examine whether the i-bodies could block platelet aggregation induced by SDF-1α. […] In the presence of negative control i-body 21H5 (or the isotype control for 12G5: mouse IgG2a). SDF-1 induced a robust and reproducible aggregation (the descending black curves, which indicate an increase in light transmission), which matches with what has been previously published.

Molecule	growth of RAMOS cells (Ramos tumor cells [1])	induction of apoptosis in Ramos cells (Ramos tumor cells [2])	mobilisation of human CD34+ stem cells [3]	binding to human Bone Marrow HSC and Bone Marrow from huNSG mice (human CD34+CD38− HSC)	binding to human Cord Blood HSC (human CD34+CD38− HSC)	cell migration / leukocyte infiltration into the air pouch [4]	collagen content of the lung (Sircol) ([5]; 30 mg/kg)	recruitment of fibrocytes into the lungs ([5]; 30 mg/kg, day 4, CD45+ CXCR4+ Col 1+ cells)	blocking of SDF-1α induced platelet aggregation [6]	recruitment of fibrocytes into the lungs ([5]; 1 mg/Kg, day 4)	recruitment of fibrocytes into the lungs ([5]; day 4, dose not given)
AM3-114: affinity matured CXCR4 i-body, SEQ ID NO: 40	substantially inhibit the growth	induced apoptosis	do not mobilise stem cells	effectively bound	effectively bound	inhibiting leukocyte infiltration; also recorded: inhibited cell migration	reduced the collagen content	dramatically attenuate	most effective; also recorded: most efficient	–	–
AM3-523: affinity matured CXCR4 i-body, SEQ ID NO: 56 (protein, protein sequence encoding AM3-523) LQVDIVPSQGEISVGESKFFLCQVAGSGSHMRISWFSPNGEKLTPNQQRISVVWNDDSSSTLTIYNANIDDAGIYKCVVWVGGYRHRALVLGEATVNVKIFQ	no observable effect	induced apoptosis	do not mobilise stem cells	–	effectively bound	inhibiting leukocyte infiltration; also recorded: inhibited cell migration	reduced the collagen content	–	blocked aggregation to the same extent as the MAb12G5	block recruitment of fibrocytes	significantly attenuate
